Reference: PMC8192493 (Journal of medicinal chemistry, 2021)
Converted amounts (≈) assume the structure as drawn. “Also recorded” adds a separate entry of the source.

Experiments:
[1] = test system: iron uptake genes isdB, sfaA, sbnC, MW0695 in MRSA-1707 biofilms; conditions: 5 μM; previous work ref 39; cited from earlier work
[2] = test system: six MRSA clinical isolates; assay: MIC assays against MRSA clinical isolates; type: cell-based; conditions: Staphylococcus aureus, read-out: MIC against six MRSA clinical isolates
J774 macrophages = assay: Alamar Blue cytotoxicity, J774 macrophages; type: cell-based; conditions: IC50 J774 MΦ and HepG2 vs MIC against MRSA, MRSE, VRE strains
[3] = test system: MRSA, MRSE, and VRE strains; assay: MIC summarised across several Gram-positive strains
[4] = test system: iron uptake genes isdB, sfaA, sbnC, MW0695 in MRSA-1707 biofilms; assay: RT-qPCR of iron uptake genes in MRSA biofilms; conditions: established biofilms, 4 h, 1 μM or 1/10 × MBEC
[5] = test system: M. tuberculosis H37Ra (ATCC 25177); assay: MIC assay for Mtb H37Ra; type: cell-based; conditions: Mycobacterium tuberculosis, ATCC25177|H37RA, 168 h, read-out: MIC Mtb H37Ra
[6] = test system: VRE 700221 (E. faecium ATCC 700221); assay: MIC broth microdilution, VRE 700221; conditions: 16 h
MRSE 35984 biofilms = assay: Calgary biofilm device; conditions: Staphylococcus epidermidis, read-out: MRSE 35984 MBC

O=C(O)CN(CCN(CC(=O)O)CC(=O)O)CC(=O)O [EDTA, ethylenediaminetetraacetic acid]
upregulation of iron uptake genes [1]: do not upregulate

Oc1c(Br)cc(Br)c2nc3ccccc3nc12 [HP 3]
MIC [2]: 1.25 to 2.5 µM (≈ 0.443 to 0.885 µg/mL)

Cc1cccc2nc3c(O)c(Br)c(Cl)c(Br)c3nc12 [HP 29, 2,4-Dibromo-3-chloro-6-methylphenazin-1-ol]
MIC [2]: 0.06 to 0.12 µM (≈ 0.0241 to 0.0483 µg/mL)
selectivity index (SI) (J774 macrophages): > 2000
MICs against all Gram-positive strains in the panel [3]: submicromolar
induction of iron starvation (upregulation of iron uptake genes) [4]: induce rapid iron starvation; also recorded: rapidly induce iron starvation

Oc1c(Br)c(Cl)c(Br)c2nc3c(Cl)cc(Cl)cc3nc12 [HP 34, 2,4-Dibromo-3,6,8-trichlorophenazin-1-ol]
MIC [2]: 0.47 to 1.25 µM (≈ 0.215 to 0.572 µg/mL)

CCSc1c(Br)c(O)c2nc3cccc(C)c3nc2c1Br [HP 45, 2,4-Dibromo-3-(ethylthio)-6-methylphenazin-1-ol]
MIC [2]: 0.31 to 0.63 µM (≈ 0.133 to 0.27 µg/mL)

c1ccc(CN(CCN(Cc2ccccn2)Cc2ccccn2)Cc2ccccn2)nc1 [TPEN, N,N,N′,N′-tetrakis(2-pyridinylmethyl)-1,2-ethanediamine]
upregulation of iron uptake genes [1]: do not upregulate

CN[C@@H]1[C@H](O[C@H]2[C@H](O[C@H]3[C@H](O)[C@@H](O)[C@H](N=C(N)N)[C@@H](O)[C@@H]3N=C(N)N)O[C@@H](C)[C@]2(O)C=O)O[C@@H](CO)[C@H](O)[C@H]1O [streptomycin]
MIC [5]: 1.32 µM (≈ 0.768 µg/mL)

CN[C@H](CC(C)C)C(=O)N[C@H]1C(=O)N[C@@H](CC(N)=O)C(=O)N[C@H]2C(=O)N[C@H]3C(=O)N[C@H](C(=O)N[C@H](C(=O)O)c4cc(O)cc(O)c4-c4cc3ccc4O)[C@H](O)c3ccc(c(Cl)c3)Oc3cc2cc(c3O[C@@H]2O[C@H](CO)[C@@H](O)[C@H](O)[C@H]2O[C@H]2C[C@](C)(N)[C@H](O)[C@H](C)O2)Oc2ccc(cc2Cl)[C@H]1O [vancomycin]
MIC VRE 700221 ([6]; BHI, 37 °C, d lowest test concentration): >100 µM
MIC ([6]; Enterococcus, ATCC700221|VRE, read-out: MIC VRE 700221): > 100 µM
MBC (MRSE 35984 biofilms): 3 µM (≈ 4.35 µg/mL)
